Experimental data reported in PubChem BioAssay AID2060617 (Molecular Pharmacology Branch, DTP, NCI, 2025).

System: 485368-065-R4-J2-PDC spheroids with HUVEC/MSC, viability
Experiment: Anticancer human tumor 485368-065-R4-J2-PDC patient-derived pancreatic carcinoma cell line growth inhibition [CLK]
Conditions: for IC50: curve of first compound; for viability, T/C: stronger effect = lower value
Excerpt: A high-throughput screen of multi-cell type tumor spheroids was designed to identify active combinations of […] and targeted small molecules. Complex spheroids include a stromal component modeled by human endothelial cells (HUVEC) and fibroblasts modeled by human mesenchymal stem cells (MSCs). The concentration ranges selected for each drug and investigational agent were based upon clinically achievable concentrations if the clinical Cmax of the agent was known.
Compounds. The drugs and investigational agents: cirtuvivint (SM08502; NSC835563), CC-671 (NSC850746), vemurafenib (NSC761431), tapotoclax (NSC804041), sotorasib (NSC818433), adagrasib (NSC831453), MRTX-1133 (NSC836407), BAY2416964 (NSC825713), copanlisib (NSC816437), inavolisib (NSC800729), abemaciclib (NSC768073), osimertinib (NSC779217), entinostat (NSC756642), eltanexor (KPT-8602, NSC794443), venetoclax (NSC766270), ceralasertib (NSC777638), bortezomib (NSC756655), olaparib (NSC753686), talazoparib (NSC767125), alisertib (NSC759677), peposertib (NSC802822), gemcitabine (NSC613327), 5-fluorouracil (NSC19893), SN-38 (NSC673596), oxaliplatin (NSC266046), paclitaxel (NSC125973), and doxorubicin (NSC123127), were obtained from the National Cancer Institute (NCI) Developmental Therapeutics Program Chemical Repository. The FDA-approved anticancer drug set is available from the Developmental Therapeutics Program at https://dtp.cancer.gov/organization/dscb/obtaining/available plates.htm. […] The stock solutions were prepared in dimethyl sulfoxide (DMSO, Sigma-Aldrich, St. Louis, MO, cat. D2650), except for the platinum complexes which were prepared in saline (Quality Biological, Gaithersburg, MD, cat. 114-055-101), at 800-fold the tested concentration and stored at -70 degrees C prior to their use. All drugs and investigational agents were tested over a range starting from a high concentration at or near the clinical Cmax and decreasing in half-log increments. If the clinical Cmax for an agent had not been determined, the highest concentration tested was 10 microM.
Cell Culture. All cells were maintained in an incubator at 37 degrees C and 5% CO2 with 95% humidity. The PDC lines were cultured according to standard operating procedures established by the NCI PDMR. Briefly, all PDCs were thawed and cultured in Matrigel-coated flasks prepared with a working solution of 1X Ham's F-12 nutrient mix, without supplementation (Invitrogen, Waltham, MA, cat. 11765054), 100 U/mL penicillin-streptomycin (Invitrogen, cat. 15140122), and 2.5% Matrigel (Corning Inc., Corning, NY, cat. 354248) for the first three passages. The 947758-054-R-J2-PDC line was cultured in 6B/Colon 1A media, which includes advanced DMEM/F-12 (Thermo Fisher Scientific, cat. 12634028), 10 mM HEPES (Thermo Fisher Scientific, cat. 15630080), 1X GlutaMAX supplement (Thermo Fisher Scientific, cat. 35050061), 0.1 mg/mL primocin (InvivoGen, cat. ant-pm-2), 10% defined fetal bovine serum, heat inactivated (HyClone Laboratories Inc., cat. SH30070.03HI), 1.25 mM N-Acetyl-L-cysteine (Sigma-Aldrich, cat. A9165), 10 mM nicotinamide (Sigma-Aldrich, cat. N0636), 1X B-27 supplement (Thermo Fisher Scientific, cat. 17504044), 1X N-2 supplement (Thermo Fisher Scientific, cat. 17502048), and 10 microM Y-27632 dihydrochloride (Tocris Bioscience, cat. 1254). The 876862-298-R-J1-PDC was cultured in 6E media, which includes all 6B/Colon 1A media components plus 50% L-WRN conditioned media (ATCC, cat. CRL-3276), 50 ng/mL recombinant human EGF recombinant protein (hEGF; Thermo Fisher Scientific, cat. PHG0311), 10 ng/mL recombinant human fibroblast growth factor 10 (hGFG-10; PeproTech, cat. 100-26), 1 ng/mL recombinant human fibroblast growth factor 2 (hFGF-2; PeproTech, cat. 100-18B), and 1 µM prostaglandin E2 (PGE2; Tocris, cat. 2296). The 227483-062-R1-J1-PDC line was cultured in Panc media, containing all 6E components except hFGF-2, with the addition of 500 nM SB-431542 (Selleckchem, cat. S1067) and 10 nM gastrin (Tocris, cat. 3006). […]

[1] = second compound 0.0316 µM, first compound 0.0316 µM
[2] = second compound 0.0316 µM, first compound 0.1 µM
[3] = second compound 0.0316 µM, first compound 0.316 µM
[4] = second compound 0.0316 µM, first compound 1 µM
[5] = second compound 0.0316 µM, first compound 3.16 µM
[6] = second compound 0.0316 µM, first compound 10 µM
[7] = second compound 0.1 µM, first compound 0.0316 µM
[8] = second compound 0.1 µM, first compound 0.1 µM
[9] = second compound 0.1 µM, first compound 0.316 µM
[10] = second compound 0.1 µM, first compound 1 µM
[11] = second compound 0.1 µM, first compound 3.16 µM
[12] = second compound 0.1 µM, first compound 10 µM
[13] = second compound 0.316 µM, first compound 0.0316 µM
[14] = second compound 0.316 µM, first compound 0.1 µM
[15] = second compound 0.316 µM, first compound 0.316 µM
[16] = second compound 0.316 µM, first compound 1 µM
[17] = second compound 0.316 µM, first compound 3.16 µM
[18] = second compound 0.316 µM, first compound 10 µM
[19] = second compound 1 µM, first compound 0.0316 µM
[20] = second compound 1 µM, first compound 0.1 µM
[21] = second compound 1 µM, first compound 0.316 µM
[22] = second compound 1 µM, first compound 1 µM
[23] = second compound 1 µM, first compound 3.16 µM
[24] = second compound 1 µM, first compound 10 µM
[25] = second compound 3.16 µM, first compound 0.0316 µM
[26] = second compound 3.16 µM, first compound 0.1 µM
[27] = second compound 3.16 µM, first compound 0.316 µM
[28] = second compound 3.16 µM, first compound 1 µM
[29] = second compound 3.16 µM, first compound 3.16 µM
[30] = second compound 3.16 µM, first compound 10 µM
[31] = second compound 10 µM, first compound 0.0316 µM
[32] = second compound 10 µM, first compound 0.1 µM
[33] = second compound 10 µM, first compound 0.316 µM
[34] = second compound 10 µM, first compound 1 µM
[35] = second compound 10 µM, first compound 3.16 µM
[36] = second compound 10 µM, first compound 10 µM
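Also: spheroids exposed to compounds for seven days.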
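For viability, T/C in this document: 100% = DMSO vehicle control wells.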

O=C(c1cc(Cc2n[nH]c(=O)c3ccccc23)ccc1F)N1CCN(C(=O)C2CC2)CC1 + CN1CCN(c2cc(C(=O)Nc3cc4cc(-c5cnn(C)c5)ccc4cn3)ccn2)CC1
IC50 (second compound 0.0316 µM): > 10 µM
IC50 (second compound 0.1 µM): > 10 µM
IC50 (second compound 0.316 µM): 8.88 µM
IC50 (second compound 1 µM): < 0.0316 µM
IC50 (second compound 3.16 µM): < 0.0316 µM
IC50 (second compound 10 µM): < 0.0316 µM
viability, T/C [1]: 92.6%
viability, T/C [2]: 111%
viability, T/C [3]: 106%
viability, T/C [4]: 110%
viability, T/C [5]: 105%
viability, T/C [6]: 82.6%
viability, T/C [7]: 107%
viability, T/C [8]: 105%
viability, T/C [9]: 105%
viability, T/C [10]: 103%
viability, T/C [11]: 105%
viability, T/C [12]: 76%
viability, T/C [13]: 79%
viability, T/C [14]: 79.9%
viability, T/C [15]: 79.7%
viability, T/C [16]: 81.1%
viability, T/C [17]: 70.5%
viability, T/C [18]: 47.5%
viability, T/C [19]: 1.08%
viability, T/C [20]: 1.02%
viability, T/C [21]: 1.67%
viability, T/C [22]: 2.06%
viability, T/C [23]: 2.06%
viability, T/C [24]: 2.39%
viability, T/C [25]: 1.23%
viability, T/C [26]: 1.3%
viability, T/C [27]: 1.64%
viability, T/C [28]: 2.47%
viability, T/C [29]: 1.39%
viability, T/C [30]: 3.02%
viability, T/C [31]: 1.53%
viability, T/C [32]: 1.87%
viability, T/C [33]: 2.81%
viability, T/C [34]: 2.7%
viability, T/C [35]: 2.29%
viability, T/C [36]: 1.73%

COc1ccc([C@@H](O)c2cc(-c3ncnc4cc(N5CCOCC5)ccc34)c(F)cc2Cl)nn1 + CNC(=O)c1ccc(Nc2nc(OC3CCCC3)c3c(-c4ccc5nc(C)oc5c4)c[nH]c3n2)c(OC)c1
IC50 (second compound 0.0316 µM): > 10 µM
IC50 (second compound 0.1 µM): > 10 µM
IC50 (second compound 0.316 µM): > 10 µM
IC50 (second compound 1 µM): > 10 µM
IC50 (second compound 3.16 µM): > 10 µM
IC50 (second compound 10 µM): > 10 µM
viability, T/C [1]: 84.1%
viability, T/C [2]: 96.7%
viability, T/C [3]: 96.1%
viability, T/C [4]: 103%
viability, T/C [5]: 122%
viability, T/C [6]: 83.7%
viability, T/C [7]: 86.5%
viability, T/C [8]: 99.7%
viability, T/C [9]: 95.1%
viability, T/C [10]: 103%
viability, T/C [11]: 96.6%
viability, T/C [12]: 87.6%
viability, T/C [13]: 82.2%
viability, T/C [14]: 77.8%
viability, T/C [15]: 86.6%
viability, T/C [16]: 73.6%
viability, T/C [17]: 81.5%
viability, T/C [18]: 66.5%
viability, T/C [19]: 69.8%
viability, T/C [20]: 70.9%
viability, T/C [21]: 72.1%
viability, T/C [22]: 67.6%
viability, T/C [23]: 65.5%
viability, T/C [24]: 59.2%
viability, T/C [25]: 68.3%
viability, T/C [26]: 62.7%
viability, T/C [27]: 68.8%
viability, T/C [28]: 57%
viability, T/C [29]: 54.9%
viability, T/C [30]: 51.4%
viability, T/C [31]: 63.7%
viability, T/C [32]: 70.4%
viability, T/C [33]: 65.4%
viability, T/C [34]: 57.5%
viability, T/C [35]: 54.8%
viability, T/C [36]: 50.1%

COc1c(OCCCN2CCOCC2)ccc2c3n(c(=NC(=O)c4cnc(N)nc4)nc12)CCN3 + CNC(=O)c1ccc(Nc2nc(OC3CCCC3)c3c(-c4ccc5nc(C)oc5c4)c[nH]c3n2)c(OC)c1
IC50 (second compound 0.0316 µM): 0.22 µM
IC50 (second compound 0.1 µM): 0.243 µM
IC50 (second compound 0.316 µM): 0.136 µM
IC50 (second compound 1 µM): 0.0549 µM
IC50 (second compound 3.16 µM): 0.0426 µM
IC50 (second compound 10 µM): 0.0353 µM
viability, T/C (second compound 0.0316 µM, first compound 0.00316 µM): 81.5%
viability, T/C (second compound 0.0316 µM, first compound 0.01 µM): 124%
viability, T/C [1]: 111%
viability, T/C [2]: 66.1%
viability, T/C [3]: 44.5%
viability, T/C [4]: 40.5%
viability, T/C (second compound 0.1 µM, first compound 0.00316 µM): 103%
viability, T/C (second compound 0.1 µM, first compound 0.01 µM): 121%
viability, T/C [7]: 110%
viability, T/C [8]: 68.4%
viability, T/C [9]: 48%
viability, T/C [10]: 39.9%
viability, T/C (second compound 0.316 µM, first compound 0.00316 µM): 72.4%
viability, T/C (second compound 0.316 µM, first compound 0.01 µM): 80.8%
viability, T/C [13]: 72.6%
viability, T/C [14]: 54.9%
viability, T/C [15]: 36.2%
viability, T/C [16]: 37.3%
viability, T/C (second compound 1 µM, first compound 0.00316 µM): 76.7%
viability, T/C (second compound 1 µM, first compound 0.01 µM): 65.4%
viability, T/C [19]: 59.6%
viability, T/C [20]: 42.1%
viability, T/C [21]: 31.1%
viability, T/C [22]: 30.5%
viability, T/C (second compound 3.16 µM, first compound 0.00316 µM): 71.2%
viability, T/C (second compound 3.16 µM, first compound 0.01 µM): 61.2%
viability, T/C [25]: 56.2%
viability, T/C [26]: 38.5%
viability, T/C [27]: 28.4%
viability, T/C [28]: 28.5%
viability, T/C (second compound 10 µM, first compound 0.00316 µM): 66.4%
viability, T/C (second compound 10 µM, first compound 0.01 µM): 65.3%
viability, T/C [31]: 49.7%
viability, T/C [32]: 38.8%
viability, T/C [33]: 27.1%
viability, T/C [34]: 30.1%
